{
  "source": "patent US6380218B1",
  "about": "“Nicotinamide derivatives” (Pfizer Inc, priority 1997, dated 2002)",
  "key": {"human recombinant PDE4A": {"molecular_target": "human recombinant PDE4A (Homo sapiens, UniProt P27815)", "sequence (P27815 whole entry)": "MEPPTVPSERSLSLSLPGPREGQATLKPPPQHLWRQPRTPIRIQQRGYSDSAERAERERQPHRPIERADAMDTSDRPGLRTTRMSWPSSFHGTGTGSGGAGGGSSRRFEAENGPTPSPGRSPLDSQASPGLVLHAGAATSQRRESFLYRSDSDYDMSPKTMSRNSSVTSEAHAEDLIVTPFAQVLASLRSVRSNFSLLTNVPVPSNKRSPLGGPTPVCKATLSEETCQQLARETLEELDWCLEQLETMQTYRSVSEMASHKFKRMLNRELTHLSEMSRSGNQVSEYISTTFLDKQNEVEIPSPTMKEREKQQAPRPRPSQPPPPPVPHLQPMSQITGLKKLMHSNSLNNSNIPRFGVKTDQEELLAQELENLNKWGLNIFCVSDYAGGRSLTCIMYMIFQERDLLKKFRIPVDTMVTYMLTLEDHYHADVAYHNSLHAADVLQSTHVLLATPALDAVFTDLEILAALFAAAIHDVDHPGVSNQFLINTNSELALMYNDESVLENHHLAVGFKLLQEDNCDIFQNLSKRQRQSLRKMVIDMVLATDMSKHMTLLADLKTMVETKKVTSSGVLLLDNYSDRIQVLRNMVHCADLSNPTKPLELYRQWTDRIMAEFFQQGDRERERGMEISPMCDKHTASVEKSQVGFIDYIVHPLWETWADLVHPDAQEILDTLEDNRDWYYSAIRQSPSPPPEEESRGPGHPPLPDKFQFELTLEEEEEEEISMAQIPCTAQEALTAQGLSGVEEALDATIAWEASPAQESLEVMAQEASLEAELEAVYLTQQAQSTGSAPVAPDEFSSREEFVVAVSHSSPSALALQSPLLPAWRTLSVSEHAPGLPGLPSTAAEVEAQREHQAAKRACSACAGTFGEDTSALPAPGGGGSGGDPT", "experiment": "Hydrolysis of 1 uM cAMP by human recombinant PDE4A", "assay_type": "biochemical", "conditions": "for IC50: human recombinant PDE4A, 1 uM cAMP, read-out: Isozyme - IC50, A; for Enantiomer (+) vs. (−), PDE4A: potency of (+) relative to (−) enantiomer", "method": "(§1) To assess pharmacologically which PDE4 isozyme(s) is responsible for eosinophil activation, we have prepared enantiomers of PDE4 inhibitors and compare the inhibitory effect of these enantiomers on PDE activity and eosinophil activation. PDE4 activity is assessed by measuring hydrolysis of 1 uM cAMP by individual human recombinant PDE4 isozymes (PDE4A, 4B, 4C or 4D). Eosinophil activation is estimated by measuring Sephadex beads-induced release of eosinophil derived neurotoxin (EDN) and leukotriene E4 in human whole blood. Table 1 illustrates comparison of one example of (−) and (+) enantiomers on the activity of individual PDE4 isozymes and on the release of END and LTE4."}, "[1]": {"tested_on": "leukotriene E4 (LTE4) release, human whole blood eosinophils", "experiment": "Sephadex beads-induced LTE4 release in human whole blood (eosinophil activation)", "assay_type": "cell-based", "conditions": "for IC50: Eosinophil, Sephadex beads, head does not say whether IC30 or IC50, read-out: HWB Eosinophil IC30 or IC50, LTE4; for Enantiomer (+) vs. (−), LTE4: potency of (+) relative to (−) enantiomer", "method": "(§2) Inhibition of Eosinophil Degranulation and Activation in Human Whole Blood\n(§3) Human Blood Eosinophil Degranulation and Activation Measurement\n(§4) Blood Collection and Compound Incubation\n(§5) One hundred ml blood is obtained from normal volunteers in Vacutainer tube #6480 (14.3 USP units sodium heparin/ml blood). Heparinized blood is pooled in 50 ml conical centrifuge tubes at 22° C. On ml blood is placed in a 12×75 mm siliconized glass tube containing 1 ul DMSO or 1 ul test compound in triplicate. After mixing, tubes are placed in a shaking water bath at 37° C. for 15 minutes. One ul PGE1 in DMSO is added to all tubes to give a final concentration of 1 uM. After mixing, 100 ul PBS (negative control) or Sephadex G-15 beads in PBS (8.25-16.5 mg/ml final concentration) is added to tubes. After mixing, all tubes are incubated in a shaking water bath at 37° C. for 1-2 hours.\n(§6) Preparation of Plasma Samples\n(§7) At the end of incubation, 20 ul of 15% EDTA in PBS is added to each assay tube. After mixing, the samples are centrifuged at 2,000 rpm (Sorvall 6000B centrifuge) at 22° C. for 5 minutes.\n(§8) EDN (or EPX) and LTE4 Measurements and the Effect of Compounds\n(§9) All plasma samples are tested for EDN (eosinophil derived neurotoxin) and LTE4 (leukotriene E4) levels. […] The levels of EDN and LTE4 are determined by a RIA (Kabi Pharmacia Diagnostics) and EIA (Cayman Chemical), respectively. EDN and LTE4 levels are calculated by comparison to a standard curve using Microsoft Excel or other appropriate software. Percent of control EDN or LTE4 release is calculated by:\n% Control LTE4=[LTE4(compound)−LTE4(blank)]/[LTE4(total)−LTE4(blank)]\n(§10) where the blank is the level of EDN or LTE4 in the absence of Sephadex beads and the total is the level of EDN or LTE4 in the presence of Sephadex beads. An IC30 or IC50 value is defined as the concentration of a compound that inhibits specific EDN or LTE 4 release by 30 or 50%, respectively.\nas §1"}, "[2]": {"tested_on": "eosinophil derived neurotoxin (EDN) release, human whole blood eosinophils", "experiment": "Sephadex beads-induced EDN release in human whole blood (eosinophil degranulation)", "assay_type": "cell-based", "conditions": "for IC50: Homo sapiens, Eosinophil, read-out: HWB Eosinophil IC30 or IC50, EDN; for Enantiomer (+) vs. (−), EDN: potency of (+) relative to (−) enantiomer, human whole blood", "method": "as §2, §3, §4, §5, §6, §7, §8, §9\n% Control EDN=[EDN(compound)−EDN(blank)]/[EDN(total)−EDN(blank)]\nas §10, §1"}, "human recombinant PDE4D": {"molecular_target": "human recombinant PDE4D (Homo sapiens, UniProt Q08499)", "sequence (Q08499 whole entry)": "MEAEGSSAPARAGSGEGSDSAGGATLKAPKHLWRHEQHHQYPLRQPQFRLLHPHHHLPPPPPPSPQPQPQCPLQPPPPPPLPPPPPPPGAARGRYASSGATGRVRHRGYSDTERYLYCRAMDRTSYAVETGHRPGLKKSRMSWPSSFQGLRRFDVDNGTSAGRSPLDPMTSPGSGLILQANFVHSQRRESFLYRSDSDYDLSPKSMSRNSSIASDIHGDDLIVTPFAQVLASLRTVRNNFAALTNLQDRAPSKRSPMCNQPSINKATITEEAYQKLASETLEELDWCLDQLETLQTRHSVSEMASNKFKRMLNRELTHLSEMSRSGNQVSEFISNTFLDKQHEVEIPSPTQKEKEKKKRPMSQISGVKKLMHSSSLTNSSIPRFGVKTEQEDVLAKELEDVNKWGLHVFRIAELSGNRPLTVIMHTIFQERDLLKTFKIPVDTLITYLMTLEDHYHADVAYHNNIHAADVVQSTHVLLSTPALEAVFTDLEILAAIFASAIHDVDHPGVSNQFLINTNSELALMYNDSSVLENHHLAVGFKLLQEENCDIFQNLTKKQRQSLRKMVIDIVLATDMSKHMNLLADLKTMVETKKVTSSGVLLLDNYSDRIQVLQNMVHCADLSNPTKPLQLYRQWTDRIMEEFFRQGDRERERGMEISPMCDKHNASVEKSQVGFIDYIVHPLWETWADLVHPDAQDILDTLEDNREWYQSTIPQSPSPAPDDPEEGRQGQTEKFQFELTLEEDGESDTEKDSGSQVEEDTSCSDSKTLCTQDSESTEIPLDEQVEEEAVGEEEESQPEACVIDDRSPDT", "experiment": "Hydrolysis of 1 uM cAMP by human recombinant PDE4D", "assay_type": "biochemical", "conditions": "for IC50: human recombinant PDE4D, 1 uM cAMP, read-out: Isozyme - IC50, 4D; for Enantiomer (+) vs. (−), PDE4D: potency of (+) relative to (−) enantiomer", "method": "as §1"}, "human recombinant PDE4C": {"molecular_target": "human recombinant PDE4C (Homo sapiens, UniProt Q08493)", "sequence (Q08493 whole entry)": "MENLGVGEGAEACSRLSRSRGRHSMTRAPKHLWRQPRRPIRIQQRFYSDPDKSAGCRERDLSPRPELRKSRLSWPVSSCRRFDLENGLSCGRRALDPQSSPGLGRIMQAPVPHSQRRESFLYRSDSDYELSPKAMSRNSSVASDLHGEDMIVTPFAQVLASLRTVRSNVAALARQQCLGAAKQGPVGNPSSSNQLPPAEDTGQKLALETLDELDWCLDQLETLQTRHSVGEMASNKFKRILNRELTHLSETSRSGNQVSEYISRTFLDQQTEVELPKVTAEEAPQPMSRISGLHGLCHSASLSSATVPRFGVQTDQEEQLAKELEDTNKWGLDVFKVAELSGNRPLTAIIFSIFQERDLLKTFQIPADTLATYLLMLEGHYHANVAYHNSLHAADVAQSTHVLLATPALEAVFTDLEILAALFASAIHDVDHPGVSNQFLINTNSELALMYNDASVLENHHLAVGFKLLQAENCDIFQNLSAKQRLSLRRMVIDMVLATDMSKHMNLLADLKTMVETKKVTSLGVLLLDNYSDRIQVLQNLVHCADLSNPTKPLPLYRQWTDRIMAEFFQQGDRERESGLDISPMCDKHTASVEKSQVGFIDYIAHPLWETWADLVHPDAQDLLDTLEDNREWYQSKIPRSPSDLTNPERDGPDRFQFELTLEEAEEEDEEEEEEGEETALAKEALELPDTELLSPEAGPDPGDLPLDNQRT", "experiment": "Hydrolysis of 1 uM cAMP by human recombinant PDE4C", "assay_type": "biochemical", "conditions": "for IC50: human recombinant PDE4C, 1 uM cAMP, read-out: Isozyme - IC50, C; for Enantiomer (+) vs. (−), PDE4C: potency of (+) relative to (−) enantiomer", "method": "as §1"}, "human recombinant PDE4B": {"molecular_target": "human recombinant PDE4B (Homo sapiens, UniProt Q07343)", "sequence (Q07343 whole entry)": "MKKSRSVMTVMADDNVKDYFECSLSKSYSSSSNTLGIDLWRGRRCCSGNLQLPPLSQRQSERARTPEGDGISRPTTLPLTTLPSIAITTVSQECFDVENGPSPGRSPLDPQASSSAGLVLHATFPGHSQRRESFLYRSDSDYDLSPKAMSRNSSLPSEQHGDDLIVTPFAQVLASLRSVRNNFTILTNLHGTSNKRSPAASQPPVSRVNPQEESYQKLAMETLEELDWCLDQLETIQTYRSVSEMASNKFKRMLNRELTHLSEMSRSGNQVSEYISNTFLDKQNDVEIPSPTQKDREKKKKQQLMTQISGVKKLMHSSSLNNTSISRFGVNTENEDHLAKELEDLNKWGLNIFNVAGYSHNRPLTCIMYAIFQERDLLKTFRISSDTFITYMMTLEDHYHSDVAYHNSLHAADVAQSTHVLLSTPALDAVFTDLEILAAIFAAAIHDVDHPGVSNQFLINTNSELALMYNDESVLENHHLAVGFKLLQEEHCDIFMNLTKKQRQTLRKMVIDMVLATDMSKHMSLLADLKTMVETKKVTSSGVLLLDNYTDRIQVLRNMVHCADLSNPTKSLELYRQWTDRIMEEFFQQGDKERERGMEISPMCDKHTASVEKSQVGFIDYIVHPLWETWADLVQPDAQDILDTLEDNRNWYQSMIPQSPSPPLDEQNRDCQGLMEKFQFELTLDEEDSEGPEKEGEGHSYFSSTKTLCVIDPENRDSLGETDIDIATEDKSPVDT", "experiment": "Hydrolysis of 1 uM cAMP by human recombinant PDE4B", "assay_type": "biochemical", "conditions": "for IC50: human recombinant PDE4B, 1 uM cAMP, read-out: Isozyme - IC50, B; for Enantiomer (+) vs. (−), PDE4B: potency of (+) relative to (−) enantiomer", "method": "as §1"}},
  "data": [
    {"compound": "COc1ccc([C@H](C)NC(=O)c2cccnc2Oc2ccc(F)cc2)cc1", "note": "[(+) Enantiomer, (S)-(+) 2-(4-Fluoro-phenoxy)-N-[1-(4-methoxy-phenyl)-ethyl]-nicotinamide]", "values": [
      {"measurement": "IC50", "setting": "human recombinant PDE4A", "value": 600, "unit": "nM"},
      {"measurement": "Enantiomer (+) vs. (−), PDE4A", "setting": "human recombinant PDE4A", "value": "approximately equipotent"},
      {"measurement": "IC50", "setting": "[1]", "value": 8, "unit": "nM"},
      {"measurement": "Enantiomer (+) vs. (−), LTE4", "setting": "[1]", "value": "20-37 X"},
      {"measurement": "IC50", "setting": "[2]", "value": 50, "unit": "nM"},
      {"measurement": "Enantiomer (+) vs. (−), EDN", "setting": "[2]", "value": "20-37 X"},
      {"measurement": "IC50", "setting": "human recombinant PDE4D", "value": 9, "unit": "nM"},
      {"measurement": "Enantiomer (+) vs. (−), PDE4D", "setting": "human recombinant PDE4D", "value": 22, "unit": "X"},
      {"measurement": "IC50", "setting": "human recombinant PDE4C", "value": 800, "unit": "nM"},
      {"measurement": "Enantiomer (+) vs. (−), PDE4C", "setting": "human recombinant PDE4C", "value": "approximately equipotent"},
      {"measurement": "IC50", "setting": "human recombinant PDE4B", "value": 600, "unit": "nM"},
      {"measurement": "Enantiomer (+) vs. (−), PDE4B", "setting": "human recombinant PDE4B", "value": "approximately equipotent"}
    ]},
    {"compound": "COc1ccc([C@@H](C)NC(=O)c2cccnc2Oc2ccc(F)cc2)cc1", "note": "[(−) Enantiomer, (R)(−)2-(4-Fluoro-phenoxy)-N-[1-(4-methoxy-phenyl)-ethyl]-nicotinamide]", "values": [
      {"measurement": "IC50", "setting": "human recombinant PDE4A", "value": 600, "unit": "nM"},
      {"measurement": "IC50", "setting": "[1]", "value": 300, "unit": "nM"},
      {"measurement": "IC50", "setting": "[2]", "value": 1000, "unit": "nM"},
      {"measurement": "IC50", "setting": "human recombinant PDE4D", "value": 200, "unit": "nM"},
      {"measurement": "IC50", "setting": "human recombinant PDE4C", "value": 400, "unit": "nM"},
      {"measurement": "IC50", "setting": "human recombinant PDE4B", "value": 300, "unit": "nM"}
    ]},
    {"compound": "(S)-(+) 2-(4-Fluoro-phenoxy)-N-[1-(4-methoxy-phenyl)-ethyl]-nicotinamide [(+) Enantiomer]", "values": [
      {"measurement": "Enantiomer (+) vs. (−), PDE4A", "setting": "human recombinant PDE4A", "value": ".s."},
      {"measurement": "Enantiomer (+) vs. (−), LTE4", "setting": "[1]", "value": 37, "unit": "X"},
      {"measurement": "Enantiomer (+) vs. (−), EDN", "setting": "[2]", "value": 20, "unit": "X"},
      {"measurement": "Enantiomer (+) vs. (−), PDE4D", "setting": "human recombinant PDE4D", "value": 22, "unit": "X"},
      {"measurement": "Enantiomer (+) vs. (−), PDE4C", "setting": "human recombinant PDE4C", "value": 0.5, "unit": "X"},
      {"measurement": "Enantiomer (+) vs. (−), PDE4B", "setting": "human recombinant PDE4B", "value": ".5X"}
    ]}
  ]
}
